Experimental data: patent publication US8476253B2, “Amide derivative” (Daiichi Sankyo Company, Limited, priority 2009, dated 2013)
Where a name gives a salt, the structure may show the parent alone. Read-outs that look alike come from different tables or passages of the source.

What was measured:
[1] = target: T1, substance P receptor (Cavia porcellus, UniProt P30547); test: Test for binding to guinea-pig substance P receptor (crude lung membrane sample)
T1 construct: A preparation of a crude lung membrane sample was prepared; from tissue; host or cells: guinea-pig lung (crude membrane sample)
Protocol: A preparation of a crude lung membrane sample was prepared, and a test for binding of a test substance to the sample was performed according to the method described in EP0336230A2.
The binding effect of the test substance to a substance P receptor was calculated as an affinity (Ki) of the test substance for the substance P receptor from a 50% binding concentration (IC50) and an affinity (Kd) of [^3H]substance P for the substance P receptor.

[2] = target: T2, neurokinin NK2 receptor (Cavia porcellus, UniProt Q64077); test: Effect of suppressing neurokinin A-induced airway contraction (in vivo, intratracheal administration); set-up: species or system guinea pig; settings: guinea pig; guinea pigs, intratracheal administration 60 minutes before 4 μg/kg i.v. NKA; AUC of increase in airway pressure over 10 minutes; read-out: ID50 (the source's name)
T2 construct: Using healthy guinea pigs (body weight, 350 to 550 g; Hartley male guinea pigs); from tissue; host or cells: live anaesthetised Hartley male guinea pigs (airway, in vivo)
T2 sequence (Q64077 1-402): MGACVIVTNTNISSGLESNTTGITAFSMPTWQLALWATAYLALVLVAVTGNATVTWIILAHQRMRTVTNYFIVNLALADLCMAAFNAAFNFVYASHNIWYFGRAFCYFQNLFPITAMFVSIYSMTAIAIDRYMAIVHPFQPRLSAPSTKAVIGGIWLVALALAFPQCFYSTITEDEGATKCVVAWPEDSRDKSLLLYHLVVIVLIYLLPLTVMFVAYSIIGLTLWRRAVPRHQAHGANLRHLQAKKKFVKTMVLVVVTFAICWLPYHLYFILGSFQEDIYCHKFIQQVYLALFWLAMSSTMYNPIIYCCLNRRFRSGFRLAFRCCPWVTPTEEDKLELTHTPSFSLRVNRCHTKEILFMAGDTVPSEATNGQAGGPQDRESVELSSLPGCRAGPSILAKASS
Protocol: Using healthy guinea pigs (body weight, 350 to 550 g; Hartley male guinea pigs), the effect of suppressing airway contraction induced by neurokinin A (NKA), which is an NK2 receptor agonist, was examined by a modified method of Konzett-Roessler (Naunyn-Schmiedebergs Arch. Exp. Pathol. Pharmakol. 195, 71 [1940]) using airway pressure as an indicator.
A tracheal cannula and a venous cannula were attached to a guinea pig anesthetized with pentobarbital (50 mg/mL solution, 0.40 to 0.50 mL/body, subcutaneous administration). An arterial cannula filled with heparin-containing physiological saline (100 U/mL) was further attached, and blood pressure and heart rate were monitored via an amplifier and an instantaneous heart rate meter. Subsequently, gallamine (20 mg/body, intravenous administration) was administered to terminate spontaneous breathing, and 10 mL/kg of positive pressure breathing (Ugo-Basile Biological Research Apparatus, Cat. No. 7025) was rapidly performed at 60 times/min. The airway pressure during artificial breathing was detected with a pressure transducer (TP-200T or TP-400T; Nihon Kohden Corporation) attached to a side branch of the tracheal cannula, amplified (AP-601G; Nihon Kohden Corporation), and recorded in a recorder. After the airway pressure, blood pressure, and heart rate were stabilized, 4 μg/kg of NKA was intravenously administered from the venous cannula to induce airway contraction, and the airway pressure was measured for the following 10 minutes.
The test substance was dissolved in a 5% glucose solution, and a 0.5 mL/kg solution was intratracheally administered with an intratracheal administration apparatus (model 1A-1B; Penn-Century, Inc.) 60 minutes before stimulation with NKA.
The AUC of increase in the airway pressure over 10 minutes after administration of NKA was determined as the intensity of NKA-induced airway contraction and calculated as an ID50 value from the inhibition rate based on the value of the control group (5% glucose solution intratracheal administration group).

[3] = system: muscarine M3 receptor; test: Effect of suppressing methacholine-induced airway contraction (in vivo, intratracheal administration); set-up: species or system guinea pig; settings: guinea pigs, intratracheal administration 60 minutes before 30 μg/kg i.v. methacholine; AUC of increase in airway pressure over 10 minutes
Outline: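 Anesthetized, gallamine-paralysed, ventilated male Hartley guinea pigs (350–550 g); compound in 5% glucose given intratracheally 60 min before 30 μg/kg i.v. methacholine. Airway pressure AUC over 10 min scored; ID50 from inhibition versus 5% glucose vehicle group.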

[4] = crude guinea-pig lung membrane sample, [3H]substance P, Ki from IC50 and Kd, read-out: Ki

T1 sequence (P30547 whole entry): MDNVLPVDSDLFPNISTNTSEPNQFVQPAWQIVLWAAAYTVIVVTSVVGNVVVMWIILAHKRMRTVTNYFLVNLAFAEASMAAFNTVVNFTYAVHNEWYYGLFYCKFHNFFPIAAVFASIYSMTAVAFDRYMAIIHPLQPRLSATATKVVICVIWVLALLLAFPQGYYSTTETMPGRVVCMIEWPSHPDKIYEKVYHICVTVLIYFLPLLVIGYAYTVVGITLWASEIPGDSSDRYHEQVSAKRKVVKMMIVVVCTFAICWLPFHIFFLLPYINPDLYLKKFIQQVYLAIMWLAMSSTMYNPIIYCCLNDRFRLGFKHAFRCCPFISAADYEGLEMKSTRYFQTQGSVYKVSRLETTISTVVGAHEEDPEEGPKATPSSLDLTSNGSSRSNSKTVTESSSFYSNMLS

Compound | Ki [1, 4] [nM] | ED50 [2] [mg/kg] | ID50 [3] [mg/kg] | Ki [1] [nM]
CN(CCN1CCC(OC(=O)Nc2ccccc2-c2ccccc2)CC1)C(=O)CCCCCNc1ccc(N(C)C(=O)CCCN(C)C(=O)CO[C@H]2Cc3ccccc3C23CCN(CC[C@@]2(c4ccc(F)cc4)CN(C(=O)c4cc(C(F)(F)F)cc(C(F)(F)F)c4)CO2)CC3)cc1 [Example 84, 1-(2-{[6-({4-[{-4-[({[(2S)-1′-{2-[(5R)-3-[3,5-Bis(trifluoromethyl)benzoyl]-5-(4-fluorophenyl)-1,3-oxazolidin-5-yl]ethyl}-2,3-dihydrospiro[indene-1,4′-piperidin]-2-yl]oxy}acetyl)(methyl)amino]butanoyl}(methyl)amino]phenyl}amino)hexanoyl](methyl)amino}ethyl)piperidin-4-yl biphenyl-2-ylcarbamate trihydrochloride] | 2.7 | 0.0221 | 0.0143 | –
CN(CCN1CCC(OC(=O)Nc2ccccc2-c2ccccc2)CC1)C(=O)CCN(C)c1ccc(C(=O)N(C)CCCN(C)C(=O)CO[C@H]2Cc3ccccc3C23CCN(CC[C@@]2(c4ccc(F)cc4)CN(C(=O)c4cc(C(F)(F)F)cc(C(F)(F)F)c4)CO2)CC3)cc1 [Example 95, 1-{2-[(N-{4-[{3-[({[(2S)-1′-{2-[(5R)-3-[3,5-Bis(trifluoromethyl)benzoyl]-5-(4-fluorophenyl)-1,3-oxazolidin-5-yl]ethyl}-2,3-dihydrospiro[indene-1,4′-piperidin]-2-yl]oxy}acetyl)(methy)amino]propyl}(methyl)carbamoyl]phenyl}-N-methyl-β-alanyl)(methyl)amino]ethyl}piperidin-4-yl biphenyl-2-ylcarbamate] | – | 0.039 | 0.0462 | 1.4
CN(CCN1CCC(OC(=O)Nc2ccccc2-c2ccccc2)CC1)C(=O)CCCCCNc1ccc(C(=O)N(CCCN(C)C(=O)CO[C@H]2Cc3ccccc3C23CCN(CC[C@@]2(c4ccc(F)cc4)CN(C(=O)c4cc(C(F)(F)F)cc(C(F)(F)F)c4)CO2)CC3)C2CC2)cc1 [Example 25, 1-(2-{[6-({4-[{3-[({[(2S)-1′-{2-[(5R)-3-[3,5-Bis(trifluoromethyl)benzoyl]-5-(4-fluorophenyl)-1,3-oxazolidin-5-yl]ethyl}-2,3-dihydrospiro[indene-1,4′-piperidin]-2-yl]oxy}acetyl)(methyl)amino]propyl}(cyclopropyl)carbamoyl]phenyl}amino)hexanoyl](methyl)amino}ethyl)piperidin-4-yl biphenyl-2-ylcarbamate trihydrochloride] | 1.7 | 0.0727 | 0.0459 | –
CN(CCN1CCC(OC(=O)Nc2ccccc2-c2ccccc2)CC1)C(=O)CCCCCNc1cccc(C(=O)N(C)CCCN(C)C(=O)CO[C@H]2Cc3ccccc3C23CCN(CC[C@@]2(c4ccc(F)cc4)CN(C(=O)c4cc(C(F)(F)F)cc(C(F)(F)F)c4)CO2)CC3)c1 [Example 43, 1-(2-{[6-({3-[{3-[({[(2S)-1′-{2-[(5R)-3-[3,5-Bis(trifluoromethyl)benzoyl]-5-(4-fluorophenyl)-1,3-oxazolidin-5-yl]ethyl}-2,3-dihydrospiro[indene-1,4′-piperidin]-2-yl]oxy}acetyl)(methyl)amino]propyl}(methyl)carbamoyl]phenyl}amino)hexanoyl](methyl)amino}ethyl)piperidin-4-yl biphenyl-2-ylcarbamate trihydrochloride] | 1.6 | 0.0241 | 0.0757 | –
CN(CCN1CCC(OC(=O)Nc2ccccc2-c2ccccc2)CC1)C(=O)COCCCNc1ccc(C(=O)N(C)CCCN(C)C(=O)CO[C@H]2Cc3ccccc3C23CCN(CC[C@@]2(c4ccc(F)cc4)CN(C(=O)c4cc(C(F)(F)F)cc(C(F)(F)F)c4)CO2)CC3)cc1 [Example 27, 1-{2-[{[3-({4-[{3-[({[(2S)-1′-{2-[(5R)-3-[3,5-Bis(trifluoromethyl)benzoyl]-5-(4-fluorophenyl)-1,3-oxazolidin-5-yl]ethyl}-2,3-dihydrospiro[indene-1,4′-piperidin]-2-yl]oxy}acetyl)(methyl)amino]propyl}(methyl)carbamoyl]phenyl}amino)propoxy]acetyl}(methyl)amino]ethyl}piperidin-4-yl biphenyl-2-ylcarbamate trihydrochloride] | 1.2 | 0.0135 | 0.0218 | –
CN(CCN1CCC(OC(=O)Nc2ccccc2-c2ccccc2)CC1)C(=O)CCCCNc1ccc(C(=O)N(C)CCCN(C)C(=O)CO[C@H]2Cc3ccccc3C23CCN(CC[C@@]2(c4ccc(F)cc4)CN(C(=O)c4cc(C(F)(F)F)cc(C(F)(F)F)c4)CO2)CC3)cc1 [Example 32, 1-(2-{[5-({4-[{3-[({[(2S)-1′-{2-[(5R)-3-[3,5-Bis(trifluoromethyl)benzoyl]-5-(4-fluorophenyl)-1,3-oxazolidin-5-yl]ethyl}-2,3-dihydrospiro[indene-1,4′-piperidin]-2-yl]oxy}acetyl)(methyl)amino]propyl}(methyl)carbamoyl]phenyl}amino)pentanoyl](methyl)amino}ethyl)piperidin-4-yl biphenyl-2-ylcarbamate trihydrochloride] | 1.3 | 0.0356 | 0.0356 | –
CN(CCN1CCC(OC(=O)Nc2ccccc2-c2ccccc2)CC1)C(=O)CCCCCNc1ccc(C(=O)N(C)CCCN(C)C(=O)CO[C@H]2Cc3ccccc3C23CCN(CC[C@@]2(c4ccc(F)cc4)CN(C(=O)c4cc(C(F)(F)F)cc(C(F)(F)F)c4)CO2)CC3)cc1 [Example 72, 1-(2-{[6-({4-[{3-[({[(2S)-1′-{2-[(5R)-3-[3,5-Bis(trifluoromethyl)benzoyl]-5-(4-fluorophenyl)-1,3-oxazolidin-5-yl]ethyl}-2,3-dihydrospiro[indene-1,4′-piperidin]-2-yl]oxy}acetyl)(methyl)amino]propyl}(methyl)carbamoyl]phenyl}amino)hexanoyl](methyl)amino}ethyl)piperidin-4-yl biphenyl-2-ylcarbamate] | 1.4 | 0.0151 | 0.0635 | –
CN(CCCCCC(=O)N(C)CCN1CCC(OC(=O)Nc2ccccc2-c2ccccc2)CC1)Cc1ccc(C(=O)N(C)CCCN(C)C(=O)CO[C@H]2Cc3ccccc3C23CCN(CC[C@@]2(c4ccc(F)cc4)CN(C(=O)c4cc(C(F)(F)F)cc(C(F)(F)F)c4)CO2)CC3)cc1 [Example 74, 1-{2-[{6-[{4-[{3-[({[(2S)-1′-{2-[(5R)-3-[3,5-Bis(trifluoromethyl)benzoyl]-5-(4-fluorophenyl)-1,3-oxazolidin-5-yl]ethyl}-2,3-dihydrospiro[indene-1,4′-piperidin]-2-yl]oxy}acetyl)(methyl)amino]propyl}(methyl)carbamoyl]benzyl}(methyl)amino]hexanoyl}(methyl)amino]ethyl}piperidin-4-yl biphenyl-2-ylcarbamate] | 0.87 | 0.0127 | 0.043 | –
